Values joined by “and” are separate entries in the source; they are usually repeats but may differ in a detail not shown here. Equal entries are not always repeated.
Tests used:
[1] = biological target: T1, intracellular Hb (Mus musculus, UniProt P01942); assay: In vivo modification of intracellular Hb in wild-type mice; design: species or system C57BL/6 mice
T1 construct: from tissue; host or cells: blood (red cell lysates) of dosed C57BL/6 mice
Summary of the method: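 C57BL/6 mice got a single 150 mg/kg dose, i.p. in 30% PEG300, or i.p. and oral in an alternative excipient. Blood was taken before dosing and at 1, 3 and 6 h (or 1, 3 or 5 h), then lysed. Lysates were analysed by cation-exchange HPLC for Hb adducts and by oxygen equilibrium for the p50 shift.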

[2] = biological target: T2, Hb (Mus musculus, UniProt P01942); assay: In vivo Hb oxygen affinity shift (Δp50) in wild-type mice; design: species or system C57BL/6 mice; settings: for increase in Hb affinity (Δp50): IP 150 mg/kg
T2 construct: from tissue; host or cells: blood (red cell lysates) of dosed C57BL/6 mice
Description: We tested in vivo pharmacologic (pharmacodynamics) effects of select PP compounds in C57BL/6 mice. The animals were treated with a single intraperitoneal (IP) (150 mg/kg body weight) dose of PP6, PP10, PP14, and TD7, which were formulated with 30% PEG300. Blood samples were obtained prior to treatment (0) and 1, 3 and 6 h post-treatment, via submandibular bleeding, and subjected to hemolysis using standard methods. Clarified lysates, free of cell debris and red blood cell ghosts were analyzed by cation-exchange HPLC to determine the levels of drug-modified hemoglobin (adducts); and to conduct oxygen equilibrium studies to determine degrees of shift in p50 values using methodologies described earlier for in vitro studies on human samples. In a subsequent follow-up experiment, a new excipient obtained from Catalent Pharma Solutions was also used to formulate PP14 and used for a single intraperitoneal (IP) and oral (150 mg/kg body weight) dose. Blood samples were obtained prior to treatment (0) and 1, 3 or 5 h post-treatment, via submandibular bleeding, and used to determine the levels of drug-modified hemoglobin (adducts); and to conduct oxygen equilibrium studies to determine degrees of shift in p50 values as described above.

[3] = tested on: RBCs from donors with homozygous SCD; assay: Oxygen-independent sickle inhibition in SS blood suspensions under anoxia (100% nitrogen); format: cell-based, human; settings: Homo sapiens, 2 mM, 4 biological replicates, read-out: % Sickling Inhibition (Anoxia)
Summary of the method: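 After room-air re-oxygenation for 15 min to reverse sickling, SS blood suspensions were held under 100% nitrogen for 1 h (screening) or up to 2.5 h (time course), with aliquots fixed at set intervals. Sickled versus non-sickled cells were counted by bright-field microscopy to calculate sickle inhibition.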

[4] = biological target: T3, Hb (Homo sapiens, UniProt P69905); assay: Affinity (KD) for Hb; format: binding
[5] = biological target: T3, Hb; assay: Oxygen equilibrium curve (OEC) studies with normal whole blood; format: cell-based; design: Hemoglobin modification, studies using non-sickling AA blood; from tissue; host or cells: non-sickling (AA) human blood, red blood cells; settings: normal whole blood, 0.5, 1, 2 mM
Summary of the method: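 Whole human blood at 30% hematocrit incubated with compound at 0.5, 1.0 or 2.0 mM (DMSO) or without. After equilibration, pO2 and sO2 measured by automated blood gas analyser across saturation levels, and the oxygen equilibrium curve fitted by nonlinear regression.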

T1 sequence (P01942 2-142 limits assumed): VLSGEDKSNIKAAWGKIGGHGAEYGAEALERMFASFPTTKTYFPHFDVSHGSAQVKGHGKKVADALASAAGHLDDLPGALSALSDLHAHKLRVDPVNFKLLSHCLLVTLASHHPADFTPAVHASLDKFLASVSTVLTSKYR
T1 sequence (P02088 2-147 partner limits assumed): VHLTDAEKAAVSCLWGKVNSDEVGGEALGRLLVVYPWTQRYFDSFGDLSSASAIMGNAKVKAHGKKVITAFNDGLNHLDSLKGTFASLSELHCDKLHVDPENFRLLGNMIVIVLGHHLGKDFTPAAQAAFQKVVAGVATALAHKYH
T2 sequence (P01942 2-142 limits assumed): as the sequence (P01942 2-142 limits assumed) above
T2 sequence (P02088 2-147 partner limits assumed): as the sequence (P02088 2-147 partner limits assumed) above
T3 sequence (P69905 2-142 limits assumed): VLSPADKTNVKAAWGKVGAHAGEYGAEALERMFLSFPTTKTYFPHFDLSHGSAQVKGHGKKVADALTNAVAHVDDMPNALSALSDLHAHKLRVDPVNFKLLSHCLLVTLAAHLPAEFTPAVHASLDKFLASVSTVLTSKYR
T3 sequence (P68871 2-147 partner limits assumed): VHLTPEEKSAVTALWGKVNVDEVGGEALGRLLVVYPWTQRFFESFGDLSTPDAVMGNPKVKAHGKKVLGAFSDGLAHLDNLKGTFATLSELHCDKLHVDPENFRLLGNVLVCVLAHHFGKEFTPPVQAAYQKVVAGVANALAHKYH

- Hb modification ([1]; IP 150 mg/kg, 30% PEG300, 1 hr): 7%
- Hb modification ([1]; IP 150 mg/kg, 30% PEG300, 3 hr): 13%
- modified Hb ([1]; IP 150 mg/kg, 30% PEG300, 6 h, 150 mg/kg): 19.1±0.6% and 19%
- Hb modification ([1]; IP 150 mg/kg, Catalent excipient, 1 hr): 21.8±1.6%
- Hb modification ([1]; IP 150 mg/kg, Catalent excipient, 3 hr): 37.7±5.0%
- Hb modification ([1]; IP 150 mg/kg, Catalent excipient, 5 hr): 51.1±4.3%
- modified Hb ([1]; oral gavage 150 mg/kg, Catalent excipient, 1 hr): 14.5±3.7%
- modified Hb ([1]; oral gavage 150 mg/kg, Catalent excipient, 3 hr): 16.3±2.2%
- modified Hb ([1]; oral gavage 150 mg/kg, Catalent excipient, 5 hr): 17.1±4.4%
- increase in Hb affinity (Δp50) ([2]; 30% PEG300): 12%
- increase in Hb affinity (Δp50) ([2]; Catalent excipient, 5 hr): 43.5±7.7%
- increase in Hb oxygen affinity (Δp50) ([2]; oral gavage 150 mg/kg, Catalent excipient): 10.3±1.5%
- Kd [4]: 150 µM
- effect on Hb oxygen binding property (OEC) [5]: most significant activities
SMILES: COC(=O)c1ccc(COc2cccc(O)c2C=O)cn1 [PP14, Methyl 5-((2-formyl-3-hydroxyphenoxy)methyl)picolinate]
- inhibition at 2000 µM [3]: 80.5 ± 17.4%
